Results reported in patent US6525001B1, “Substituted pyrimidine and pyridine herbicides” (Mid-American Commercialization Corporation, priority 1997, dated 2003).

Columns and labels:
Assay type in all cases: in vivo
Design in all cases: key: 0 is no effect; 10 is complete control
[1] = test system: bamyardgrass (Echinochloa crus-galli); experiment: Test B flood test
How it was run: (§1)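 Plants were grown to the 2-leaf stage before treatment with test chemical, then held in a greenhouse for twelve to sixteen days. Injury was visually rated against untreated controls on a 0–10 scale, where 0 is no effect and 10 is complete control.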

rice (Oryza sativa) = experiment: Test B flood test
How it was run: as §1

[2] = test system: smallflower flatsedge (Cyperus difformis); experiment: Test B flood test
How it was run: as §1

[3] = test system: duck salad (Heteranthera limosa); experiment: Test B flood test
How it was run: as §1

[4] = test system: momingglory (Ipomoea hederacea); experiment: Test B pre-/postemergence
How it was run: (§2)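 Seeds were planted and sprayed preemergence, while plants at 2 to 18 cm (1- to 4-leaf stage) were sprayed postemergence at the same time, with test chemical in a non-phytotoxic solvent mixture containing surfactant. After twelve to sixteen days in a greenhouse, injury was rated visually against untreated controls on a 0–10 scale.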

[5] = test system: pigweed (Amaranthus retroflexus); experiment: Test B pre-/postemergence
How it was run: as §2

[6] = test system: wheat (Triticum aestivum); experiment: Test B pre-/postemergence
How it was run: as §2

[7] = test system: velvetleaf (Abutilon theophrasti); experiment: Test B pre-/postemergence
How it was run: as §2

[8] = test system: purple nutsedge (Cyperus rotundus); experiment: Test B pre-/postemergence
How it was run: as §2

[9] = test system: bedstraw (Galium aparine); experiment: Test B pre-/postemergence; details: for Bedstraw plant response rating: Preemergence
How it was run: as §2

[10] = test system: giant foxtail (Setaria faberii); experiment: Test B pre-/postemergence
How it was run: as §2

[11] = test system: blackgrass (Alopecurus myosuroides); experiment: Test B pre-/postemergence; details: for Blackgrass plant response rating: Preemergence
How it was run: as §2

corn (Zea mays) = experiment: Test B pre-/postemergence; details: for Corn plant response rating: Preemergence
How it was run: as §2

soybean (Glycine max) = experiment: Test B pre-/postemergence
How it was run: as §2

rape (Brassica napus) = experiment: Test B pre-/postemergence
How it was run: as §2

[12] = test system: sugar beet (Beta vulgaris); experiment: Test B pre-/postemergence
How it was run: as §2

wild oat (Avena fatua) = experiment: Test B pre-/postemergence
How it was run: as §2

[13] = test system: crabgrass (Digitaria sanguinalis); experiment: Test B pre-/postemergence; details: for Crabgrass plant response rating: Preemergence
How it was run: as §2

[14] = test system: broadleaf signalgrass (Brachiaria decumbens); experiment: Test B pre-/postemergence; details: for B. signalgrass plant response rating: Preemergence
How it was run: as §2

[15] = test system: cocklebur (Xanthium strumarium); experiment: Test B pre-/postemergence; details: for Cocklebur plant response rating: Preemergence
How it was run: as §2

[16] = Rate 62 g/ha, Postemergence (flood test)
[17] = Rate 125 g/ha, Postemergence, flood test
[18] = Rate 250 g/ha, Postemergence (flood test species)
[19] = Rate 125 g/ha, Postemergence section (flood test species)
[20] = Rate 250 g/ha, Postemergence (so in the source)

Cc1cnc(-c2ccc(C#N)cc2)nc1Cc1cccc(C#N)c1 [Compound 36]
4: Redroot pigweed plant response rating ([5]; Rate 125 g/ha, Postemergence) | Plant response rating, Rape (rape (Brassica napus); Rate 62 g/ha, Postemergence)
0: Plant response rating, Barnyardgrass [1, 16] | Plant response rating, Barnyardgrass [1, 17] | Plant response rating, Barnyardgrass [1, 18] | Plant response rating, Rice (rice (Oryza sativa); [16]) | Rice plant response rating (rice (Oryza sativa); [19]) | Plant response rating, Rice (rice (Oryza sativa); [18]) | Plant response rating, Ducksalad [3, 16] | Plant response rating, Ducksalad [3, 17] | Morningglory plant response rating ([4]; Rate 62 g/ha, Preemergence) | Morningglory plant response rating ([4]; Rate 125 g/ha, Preemergence) | Plant response rating, Morningglory [4, 20] | Plant response rating, Redroot pigweed ([5]; Rate 62 g/ha, Postemergence) | Redroot pigweed plant response rating ([5]; Rate 62 g/ha, Preemergence) | Redroot pigweed plant response rating ([5]; Rate 125 g/ha, Preemergence) | Wheat plant response rating ([6]; Rate 62 g/ha, Postemergence) | Wheat plant response rating ([6]; Rate 62 g/ha, Preemergence) | Plant response rating, Wheat ([6]; Rate 125 g/ha, Preemergence) | Plant response rating, Wheat [6, 20] | Velvetleaf plant response rating ([7]; Rate 62 g/ha, Preemergence) | Plant response rating, Velvetleaf ([7]; Rate 125 g/ha, Preemergence) | Plant response rating, Nutsedge ([8]; Rate 62 g/ha, Postemergence) | Nutsedge plant response rating ([8]; Rate 62 g/ha, Preemergence) | Nutsedge plant response rating ([8]; Rate 125 g/ha, Postemergence) | Nutsedge plant response rating ([8]; Rate 125 g/ha, Preemergence) | Plant response rating, Nutsedge ([8]; Rate 250 g/ha, Postemergence) | Plant response rating, Nutsedge [8, 20] | Bedstraw plant response rating ([9]; Rate 62 g/ha) | Bedstraw plant response rating ([9]; Rate 125 g/ha) | Plant response rating, Bedstraw [9, 20] | Plant response rating, Giant foxtail ([10]; Rate 62 g/ha, Postemergence) | Giant foxtail plant response rating ([10]; Rate 62 g/ha, Preemergence) | Giant foxtail plant response rating ([10]; Rate 125 g/ha, Preemergence) | Plant response rating, Giant foxtail [10, 20] | Plant response rating, Blackgrass ([11]; Rate 62 g/ha, Postemergence) | Blackgrass plant response rating ([11]; Rate 62 g/ha) | Plant response rating, Blackgrass ([11]; Rate 125 g/ha, Postemergence) | Blackgrass plant response rating ([11]; Rate 125 g/ha) | Corn plant response rating (corn (Zea mays); Rate 62 g/ha) | Corn plant response rating (corn (Zea mays); Rate 125 g/ha) | Plant response rating, Corn (corn (Zea mays); [20]) | Soybean plant response rating (soybean (Glycine max); Rate 62 g/ha, Preemergence) | Plant response rating, Soybean (soybean (Glycine max); Rate 125 g/ha, Preemergence) | Rape plant response rating (rape (Brassica napus); Rate 62 g/ha, Preemergence) | Rape plant response rating (rape (Brassica napus); Rate 125 g/ha, Preemergence) | Sugarbeets plant response rating ([12]; Rate 62 g/ha, Preemergence) | Plant response rating, Sugarbeets ([12]; Rate 125 g/ha, Preemergence) | Wild oats plant response rating (wild oat (Avena fatua); Rate 62 g/ha, Postemergence) | Wild oats plant response rating (wild oat (Avena fatua); Rate 62 g/ha, Preemergence) | Plant response rating, Wild oats (wild oat (Avena fatua); Rate 125 g/ha, Preemergence) | Plant response rating, Wild oats (wild oat (Avena fatua); [20]) | Plant response rating, Crabgrass ([13]; Rate 62 g/ha, Postemergence) | Crabgrass plant response rating ([13]; Rate 62 g/ha) | Crabgrass plant response rating ([13]; Rate 125 g/ha) | Plant response rating, Crabgrass [13, 20] | B. signalgrass plant response rating ([14]; Rate 62 g/ha) | B. signalgrass plant response rating ([14]; Rate 125 g/ha) | Plant response rating, B. signalgrass ([14]; Rate 250 g/ha, Postemergence as printed in head r139 (second section for compounds 26-50)) | Cocklebur plant response rating ([15]; Rate 62 g/ha) | Cocklebur plant response rating ([15]; Rate 125 g/ha) | Plant response rating, Cocklebur [15, 20]
9: Plant response rating, Sugarbeets ([12]; Rate 250 g/ha, Postemergence)
1: Plant response rating, Ducksalad [3, 18] | Plant response rating, Morningglory ([4]; Rate 62 g/ha, Postemergence) | Wheat plant response rating ([6]; Rate 125 g/ha, Postemergence) | Plant response rating, Velvetleaf ([7]; Rate 62 g/ha, Postemergence) | Velvetleaf plant response rating ([7]; Rate 125 g/ha, Postemergence) | Plant response rating, Velvetleaf ([7]; Rate 250 g/ha, Postemergence) | Plant response rating, Velvetleaf [7, 20] | Giant foxtail plant response rating ([10]; Rate 125 g/ha, Postemergence) | Plant response rating, Giant foxtail ([10]; Rate 250 g/ha, Postemergence) | Plant response rating, Blackgrass [11, 20] | Plant response rating, Corn (corn (Zea mays); Rate 62 g/ha, Postemergence) | Plant response rating, Corn (corn (Zea mays); Rate 125 g/ha, Postemergence) | Plant response rating, Corn (corn (Zea mays); Rate 250 g/ha, Postemergence) | Plant response rating, Soybean (soybean (Glycine max); Rate 62 g/ha, Postemergence) | Soybean plant response rating (soybean (Glycine max); Rate 125 g/ha, Postemergence) | Plant response rating, Soybean (soybean (Glycine max); [20]) | Plant response rating, Rape (rape (Brassica napus); [20]) | Wild oats plant response rating (wild oat (Avena fatua); Rate 125 g/ha, Postemergence) | Plant response rating, Crabgrass ([13]; Rate 125 g/ha, Postemergence) | Plant response rating, Crabgrass ([13]; Rate 250 g/ha, Postemergence) | Plant response rating, B. signalgrass ([14]; Rate 62 g/ha, Postemergence) | Plant response rating, B. signalgrass ([14]; Rate 125 g/ha, Postemergence) | Plant response rating, B. signalgrass ([14]; Rate 250 g/ha, Postemergence) | Plant response rating, Cocklebur ([15]; Rate 62 g/ha, Postemergence)
6: Plant response rating, S. Flatsedge [2, 18] | Plant response rating, Bedstraw ([9]; Rate 62 g/ha, Postemergence)
3: Plant response rating, Cocklebur ([15]; Rate 250 g/ha, Postemergence)
5: S. Flatsedge plant response rating [2, 19] | Rape plant response rating (rape (Brassica napus); Rate 125 g/ha, Postemergence) | Plant response rating, Rape (rape (Brassica napus); Rate 250 g/ha, Postemergence)
7: Plant response rating, Bedstraw ([9]; Rate 125 g/ha, Postemergence) | Plant response rating, Bedstraw ([9]; Rate 250 g/ha, Postemergence)
2: Plant response rating, S. Flatsedge [2, 16] | Morningglory plant response rating ([4]; Rate 125 g/ha, Postemergence) | Plant response rating, Morningglory ([4]; Rate 250 g/ha, Postemergence) | Plant response rating, Wheat ([6]; Rate 250 g/ha, Postemergence) | Plant response rating, Blackgrass ([11]; Rate 250 g/ha, Postemergence) | Plant response rating, Soybean (soybean (Glycine max); Rate 250 g/ha, Postemergence) | Plant response rating, Sugarbeets [12, 20] | Plant response rating, Wild oats (wild oat (Avena fatua); Rate 250 g/ha, Postemergence) | Plant response rating, Cocklebur ([15]; Rate 125 g/ha, Postemergence)
8: Plant response rating, Redroot pigweed ([5]; Rate 250 g/ha, Postemergence) | Plant response rating, Redroot pigweed [5, 20] | Plant response rating, Sugarbeets ([12]; Rate 62 g/ha, Postemergence) | Sugarbeets plant response rating ([12]; Rate 125 g/ha, Postemergence)
